test system: PC3 cells; experiment: NAMPT Cell Proliferation Assay; type: cell-based; settings: Homo sapiens, PC-3, 120 h, 5 days incubation, cell viability by Cell Titer Glo
Summary of the method: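 Seeded at 500 cells/well in RPMI with 10% heat-inactivated FBS and left to attach overnight at 37° C, 5% CO2. Compounds were added as 10-fold dilutions […] for 5 days, then viability was read by CellTiter-Glo. IC50s came from sigmoidal fits of percent inhibition.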

| SMILES | IC50 |
| --- | --- |
| O=C(Nc1ccc(OC2CCN(C(=O)CC3CC3)CC2)cc1)[C@H]1CCN(c2cccnc2)C1 [Example 16, (3S)-N-(4-{[1-(cyclopropylacetyl)piperidin-4-yl]oxy}phenyl)-1-(pyridin-3-yl)pyrrolidine-3-carboxamide] | 0.0926 µM |
| O=C(Nc1ccc(O[C@@H]2CCN(C(=O)Cc3cccc(C(F)(F)F)c3)C2)cc1)C1CN(c2cccnn2)C1 [Example 512, 1-(pyridazin-3-yl)-N-(4-{[(3R)-1-{[3-(trifluoromethyl)phenyl]acetyl}pyrrolidin-3-yl]oxy}phenyl)azetidine-3-carboxamide] | 0.0155 µM |
| O=C(Nc1ccc(OC2CN(C(=O)Cc3ccc(F)cc3)C2)cc1)C1CN(c2ccnnc2)C1 [Example 203, N-[4-({1-[(4-fluorophenyl)acetyl]azetidin-3-yl}oxy)phenyl]-1-(pyridazin-4-yl)azetidine-3-carboxamide] | 0.606 µM |
| O=C(NC1CN(c2cccnn2)C1)c1ccc(C2CCN(C(=O)c3ccc(F)cc3)CC2)s1 [Example 815, 5-[1-(4-fluorobenzoyl)piperidin-4-yl]-N-[1-(pyridazin-3-yl)azetidin-3-yl]thiophene-2-carboxamide] | 0.185 µM |
| O=C(Nc1ccc(C2CN(C(=O)c3cc(F)cc(F)c3)C2)cc1)[C@H]1CCN(c2cccnn2)C1 [Example 790, (3S)-N-{4-[1-(3,5-difluorobenzoyl)azetidin-3-yl]phenyl}-1-(pyridazin-3-yl)pyrrolidine-3-carboxamide] | 0.0746 µM |
| CC(C)(C)C(=O)N1CC(c2ccc(NC(=O)[C@H]3CCN(c4cccnn4)C3)cc2)C1 [Example 789, (3S)-N-{4-[1-(2,2-dimethylpropanoyl)azetidin-3-yl]phenyl}-1-(pyridazin-3-yl)pyrrolidine-3-carboxamide] | 0.0284 µM |
| CCCCC(=O)N1CCC(c2ccc(NC(=O)C3CN(c4cccnc4C)C3)cc2)CC1 [Example 159, 1-(2-methylpyridin-3-yl)-N-[4-(1-pentanoylpiperidin-4-yl)phenyl]azetidine-3-carboxamide] | 0.182 µM |
| Cc1ccc(C)c(C(=O)N2CCC(c3ccc(NC(=O)[C@H]4CCN(c5cccnn5)C4)cc3)CC2)c1 [Example 696, (3S)-N-{4-[1-(2,5-dimethylbenzoyl)piperidin-4-yl]phenyl}-1-(pyridazin-3-yl)pyrrolidine-3-carboxamide] | 0.00467 µM |
| O=C(Nc1ccc(C2CCN(C(=O)c3cccc(C(F)(F)F)c3)CC2)cc1)[C@H]1CCN(c2cccnn2)C1 [Example 711, (3S)-1-(pyridazin-3-yl)-N-(4-{1-[3-(trifluoromethyl)benzoyl]piperidin-4-yl}phenyl)pyrrolidine-3-carboxamide] | 0.0595 µM |
| CC(C)C(=O)N1CCC(Oc2ccc(NC(=O)C3CN(c4cccnn4)C3)cc2)CC1 [Example 253, N-(4-{[1-(2-methylpropanoyl)piperidin-4-yl]oxy}phenyl)-1-(pyridazin-3-yl)azetidine-3-carboxamide] | 0.00809 µM |
| CN1CCC(CC(=O)N2CCC(c3ccc(C(=O)N[C@H]4CCN(c5cccnn5)C4)s3)CC2)CC1 [Example 767, 5-{1-[(1-methylpiperidin-4-yl)acetyl]piperidin-4-yl}-N-[(3S)-1-(pyridazin-3-yl)pyrrolidin-3-yl]thiophene-2-carboxamide] | 1.28 µM |
| CC(C)(C)C(=O)N1CCC(S(=O)(=O)c2ccc(NC(=O)C3CN(c4cccnn4)C3)cc2)CC1 [Example 594, N-(4-{[1-(2,2-dimethylpropanoyl)piperidin-4-yl]sulfonyl}phenyl)-1-(pyridazin-3-yl)azetidine-3-carboxamide] | 0.0478 µM |
| CC[C@H](C)C(=O)N1CCC(Oc2ccc(NC(=O)C3CN(c4cccnn4)C3)cc2)CC1 [Example 212, N-[4-({1-[(2S)-2-methylbutanoyl]piperidin-4-yl}oxy)phenyl]-1-(pyridazin-3-yl)azetidine-3-carboxamide] | 0.00579 µM |
| O=C(NC1CN(c2cccnn2)C1)c1ccc(C2CCN(C(=O)c3ccc(F)cc3F)CC2)s1 [Example 813, 5-[1-(2,4-difluorobenzoyl)piperidin-4-yl]-N-[1-(pyridazin-3-yl)azetidin-3-yl]thiophene-2-carboxamide] | 0.0786 µM |
| CC[C@H](C(=O)N1CCC(c2ccc(NC(=O)[C@H]3CCN(c4cccnn4)C3)cc2)CC1)c1ccccc1 [Example 632, (3S)-N-(4-{1-[(2S)-2-phenylbutanoyl]piperidin-4-yl}phenyl)-1-(pyridazin-3-yl)pyrrolidine-3-carboxamide] | 0.00881 µM |
| O=C(Nc1ccc(OC2CCN(C(=O)CC3CCCC3)CC2)cc1)C1CN(c2cccnc2)C1 [Example 69, N-(4-{[1-(cyclopentylacetyl)piperidin-4-yl]oxy}phenyl)-1-(pyridin-3-yl)azetidine-3-carboxamide] | 0.00422 µM |
| O=C(Nc1ccc(C2CCN(C(=O)C3CCC3)CC2)cc1)C1CN(c2cccnn2)C1 [Example 417, N-{4-[1-(cyclobutylcarbonyl)piperidin-4-yl]phenyl}-1-(pyridazin-3-yl)azetidine-3-carboxamide] | 0.00645 µM |

Continued by falling IC50, values first:

| IC50 | SMILES |
| --- | --- |
| 1.3 µM | Cc1ncccc1N1CC(C(=O)Nc2ccc(C3CCN(C(=O)c4cccnn4)CC3)cc2)C1 [Example 158, 1-(2-methylpyridin-3-yl)-N-{4-[1-(pyridazin-3-ylcarbonyl)piperidin-4-yl]phenyl}azetidine-3-carboxamide] |
| 0.329 µM | O=C(Nc1ccc(C2CCN(C(=O)c3ccccc3)CC2)cc1)[C@@H]1CCN(c2cccnn2)C1 [Example 793, (3R)—N-[4-(1-benzoylpiperidin-4-yl)phenyl]-1-(pyridazin-3-yl)pyrrolidine-3-carboxamide] |
| 0.0548 µM | O=C(Nc1ccc(OC2CCN(C(=O)[C@H]3CCCO3)CC2)cc1)[C@H]1CCN(c2cccnc2)C1 [Example 14, (3S)-1-(pyridin-3-yl)-N-[4-({1-[(2R)-tetrahydrofuran-2-ylcarbonyl]piperidin-4-yl}oxy)phenyl]pyrrolidine-3-carboxamide] |
| 0.0515 µM | O=C(Nc1ccc(OC2CCN(C(=O)c3ccc(F)cc3)CC2)cc1)C1CN(c2ccnnc2)C1 [Example 271, N-(4-{[1-(4-fluorobenzoyl)piperidin-4-yl]oxy}phenyl)-1-(pyridazin-4-yl)azetidine-3-carboxamide] |
| 0.0144 µM | O=C(Nc1ccc(C2CCN(C(=O)c3cc(F)cc(F)c3)CC2)cc1F)C1CN(c2cccnn2)C1 [Example 834, N-{4-[1-(3,5-difluorobenzoyl)piperidin-4-yl]-2-fluorophenyl}-1-(pyridazin-3-yl)azetidine-3-carboxamide] |
| 0.00301 µM | CC(C)C(=O)N1CCC(Oc2ccc(NC(=O)C3CN(c4cccnc4)C3)cc2)CC1 [Example 46, N-(4-{[1-(2-methylpropanoyl)piperidin-4-yl]oxy}phenyl)-1-(pyridin-3-yl)azetidine-3-carboxamide] |
| 0.00032 µM | O=C(Nc1ccc(O[C@@H]2CCN(C(=O)c3ccccc3F)C2)cc1)C1CN(c2cccnn2)C1 [Example 514, N-(4-{[(3R)-1-(2-fluorobenzoyl)pyrrolidin-3-yl]oxy}phenyl)-1-(pyridazin-3-yl)azetidine-3-carboxamide] |
| 0.00016 µM | O=C(Nc1ccc(C2CCN(C(=O)c3ccco3)CC2)cc1)C1CN(c2cccnc2)C1 [Example 129, N-{4-[1-(furan-2-ylcarbonyl)piperidin-4-yl]phenyl}-1-(pyridin-3-yl)azetidine-3-carboxamide] |

From patent US20130303509A1, “NAMPT INHIBITORS” (AbbVie Inc., priority 2012, published 2013)
